Among the data in patent US20130203662A1, “Mini-Hepcidin Peptides and Methods of Using Thereof” (priority 2008, published 2013) are DC50 and EC50 values, retold here.

One may read the pEC50 as the negative decadic logarithm of the EC50, by convention in mol/L. A low value points to a large EC50.

SMILES strings stand for the structures. pEC50: −log10 of the molar value. Like-named read-outs stand apart in the source and are kept apart here. Bridge positions count the residues as written; N and C are the ends. Square brackets hold non-standard residues; d marks the D form. Peptide text beside a SMILES is read from it. * marks the point of attachment. Bip = N[C@@H](Cc1ccc(-c2ccccc2)cc1)C(=O)O; X3 = NC(=O)C[C@H](N*)C(c1ccccc1)c1ccccc1; Dip = N[C@H](C(=O)O)C(c1ccccc1)c1ccccc1; 1Nal = N[C@@H](Cc1cccc2ccccc12)C(=O)O; StBu = CC(C)(C)S*; tBu = CC(C)(C)* Bounds are passed on as bounds.

In this assay the target is T1, ferroportin fused to green fluorescent protein (ECR293/Fpn-GFP cells) (Mus musculus, UniProt Q9JHI9).
T1 sequence (Q9JHI9 1-570): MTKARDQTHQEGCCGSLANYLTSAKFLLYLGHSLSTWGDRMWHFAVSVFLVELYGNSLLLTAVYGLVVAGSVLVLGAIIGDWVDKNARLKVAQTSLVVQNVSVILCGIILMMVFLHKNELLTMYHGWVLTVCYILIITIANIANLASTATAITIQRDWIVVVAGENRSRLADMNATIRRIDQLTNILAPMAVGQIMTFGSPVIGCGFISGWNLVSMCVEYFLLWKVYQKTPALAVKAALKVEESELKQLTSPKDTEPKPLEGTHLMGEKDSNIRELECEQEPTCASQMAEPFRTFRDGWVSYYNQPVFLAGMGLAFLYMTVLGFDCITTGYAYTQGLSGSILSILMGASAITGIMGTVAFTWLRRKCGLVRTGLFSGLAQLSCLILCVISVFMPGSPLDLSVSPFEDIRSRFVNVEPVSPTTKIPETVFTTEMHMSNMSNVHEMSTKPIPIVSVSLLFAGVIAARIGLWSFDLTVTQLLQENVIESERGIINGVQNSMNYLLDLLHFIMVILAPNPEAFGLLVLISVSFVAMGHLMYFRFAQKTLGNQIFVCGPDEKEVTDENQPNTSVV
The experiment in a line: Flow cytometry of ferroportin-GFP internalization and degradation in ECR293/Fpn-GFP cells. The assay is classed as cell-based. Particulars: concentration eliciting 50% of maximal loss of fluorescence generated by reference Hep25, 24 hours. The method, then:
In vitro activity may be measured by the dose-dependent loss of fluorescence of cells engineered to display ferroportin fused to green fluorescent protein as in Nemeth et al. (2006) Blood 107:328-33. […]
FLOW CYTOMETRY. The activity of peptides of the present invention was measured by flow cytometry as previously described. See Nemeth et al. (2006) Blood 107:328-333, which is herein incorporated by reference. ECR293/Fpn-GFP, a cell line stably transfected with a ponasterone-inducible ferroportin construct tagged at the C-terminus with green fluorescent protein was used. See Nemeth et al. (2004) Science 306:2090-2093, which is herein incorporated by reference. Briefly, the cells were plated on poly-D-lysine coated plates in the presence of 20 μM FAC, with or without 10 μM ponasterone. After 24 hours, ponasterone was washed off, and cells were treated with peptides for 24 hours. Cells were then trypsinized and resuspended at 1×10^6 cells/ml, and the intensity of green fluorescence was analyzed by flow cytometry. […] Cells not induced with ponasterone to express Fpn-GFP were used to establish a gate to exclude background fluorescence. Cells induced with ponasterone, but not treated with any peptides, were used as the positive control. Each peptide was tested over the range of concentrations (0, 0.01, 0.03, 0.1, 0.3, 1, 3 and 10 μM). Each peptide treatment was repeated independently 3 to 6 times.

The mark [1] stands for this setting: read-out: EC50 (the source's name).

As for `CC[C@H](C)[C@H](NC(=O)[C@@H]1CCCN1C(=O)[C@H](Cc1ccccc1)NC(=O)[C@H](Cc1c[nH]cn1)NC(=O)[C@@H](NC(=O)[C@@H](N)CC(=O)O)[C@@H](C)O)C(=O)N[C@@H](C(=O)N[C@H](C(=O)N[C@@H](Cc1ccccc1)C(N)=O)[C@@H](C)CC)C(C)(C)S` [(D)Pen], the DC50 under setting [1] worked out at 3 µM.

In the case of `CC[C@H](C)[C@H](NC(=O)[C@@H]1CSSC[C@H](N)C(=O)N[C@@H](Cc2c[nH]cn2)C(=O)N[C@@H](Cc2ccccc2)C(=O)N2CCC[C@H]2C(=O)N[C@@H]([C@@H](C)CC)C(=O)N1)C(=O)N[C@@H](Cc1ccccc1)C(N)=O` [Cyc-2] (H-CHFPICIF-NH2; disulfide 1-6), the DC50 (read-out: EC50) was greater than 10 µM.

Turning to `CC[C@H](C)[C@H](NC(=O)[C@H](CS)NC(=O)[C@@H](NC(=O)[C@@H]1CCCN1C(=O)[C@H](Cc1cccc2ccccc12)NC(=O)[C@H](Cc1c[nH]cn1)NC(=O)[C@@H](NC(=O)[C@@H](N)CC(=O)O)[C@@H](C)O)[C@@H](C)CC)C(=O)N[C@@H](Cc1ccccc1)C(N)=O` [F4 1Nal] (H-DTH[1Nal]PICIF-NH2; N-terminus assumed), the DC50 under setting [1] turned out to be 0.11 µM.

For the compound `CC[C@H](C)[C@H](NC(=O)[C@H](CS)NC(=O)[C@@H](NC(=O)[C@@H]1CCCN1C(=O)[C@H](Cc1ccc(-c2ccccc2)cc1)NC(=O)[C@H](Cc1c[nH]cn1)NC(=O)[C@@H](NC(=O)[C@@H](N)CC(=O)O)[C@@H](C)O)[C@@H](C)CC)C(=O)N[C@@H](Cc1ccccc1)C(N)=O` [F4Bip] (H-DTH[Bip]PICIF-NH2; N-terminus assumed), the DC50 under setting [1] came out at 0.15 µM.

Consider `CC[C@H](C)[C@H](NC(=O)[C@H](CS)NC(=O)[C@@H](NC(=O)[C@@H]1CCCN1C(=O)[C@@H](NC(=O)[C@H](Cc1c[nH]cn1)NC(=O)[C@@H](NC(=O)[C@@H](N)CC(=O)O)[C@@H](C)O)C(c1ccccc1)c1ccccc1)[C@@H](C)CC)C(=O)N[C@@H](Cc1ccccc1)C(N)=O` [F4Dpa] (H-DTH[Dip]PICIF-NH2; N-terminus assumed), for which the pEC50 is 7.52.

Regarding `CC[C@H](C)[C@H](NC(=O)[C@H](CS)NC(=O)[C@@H](NC(=O)[C@@H]1CCCN1C(=O)C[C@H](Cc1ccccc1)NC(=O)[C@H](Cc1c[nH]cn1)NC(=O)[C@@H](NC(=O)[C@@H](N)CC(=O)O)[C@@H](C)O)[C@@H](C)CC)C(=O)N[C@@H](Cc1ccccc1)C(N)=O` [F4bhPhe], the DC50 under setting [1] amounted to 0.7 µM.

As to `CC[C@H](C)[C@H](NC(=O)[C@H](CS)NC(=O)[C@@H](NC(=O)[C@@H]1CCCN1C(=O)[C@H](Cc1ccccc1)NC(=O)[C@H](Cc1c[nH]cn1)NC(=O)[C@@H](NC(=O)[C@@H](N)CC(=O)O)[C@@H](C)O)[C@@H](C)CC)C(=O)N[C@@H](Cc1ccc(-c2ccccc2)cc1)C(N)=O` [F9Bip] (H-DTHFPICI[Bip]-NH2; N-terminus assumed), the DC50 under setting [1] was found to be 0.15 µM.

In the case of `CC[C@H](C)[C@H](NC(=O)[C@H](CS)NC(=O)[C@@H](NC(=O)[C@@H]1CCCN1C(=O)[C@H](Cc1ccccc1)NC(=O)[C@H](Cc1c[nH]cn1)NC(=O)[C@@H](NC(=O)[C@@H](N)CC(=O)O)[C@@H](C)O)[C@@H](C)CC)C(=O)N[C@H](C(N)=O)C(c1ccccc1)c1ccccc1` [F9Dpa] (H-DTHFPICI[Dip]-NH2), the DC50 under setting [1] came to 0.07 µM.

`CC[C@H](C)[C@H](NC(=O)[C@H](CS)NC(=O)[C@@H](NC(=O)[C@@H]1CCCN1C(=O)[C@H](Cc1ccccc1)NC(=O)[C@H](Cc1c[nH]cn1)NC(=O)[C@@H](NC(=O)[C@@H](N)CC(=O)O)[C@@H](C)O)[C@@H](C)CC)C(=O)N[C@@H](CC(N)=O)C(c1ccccc1)c1ccccc1` [F9bhDpa] (H-DTHFPICI-X3) showed a pEC50 of 7.00.

For the compound `CC[C@H](C)[C@H](NC(=O)[C@H](CS)NC(=O)[C@@H](NC(=O)[C@@H]1CCCN1C(=O)[C@H](Cc1ccccc1)NC(=O)[C@H](Cc1c[nH]cn1)NC(=O)[C@@H](NC(=O)[C@@H](N)CC(=O)O)[C@@H](C)O)[C@@H](C)CC)C(=O)N[C@H](CC(N)=O)Cc1ccccc1` [F9bhPhe], under setting [1], the DC50 turned out to be 0.15 µM.

On to `CC[C@H](C)[C@H](NC(=O)[C@H](CS)NC(=O)[C@@H](NC(=O)[C@@H]1CCCN1C(=O)[C@H](Cc1ccccc1)NC(=O)[C@H](Cc1c[nH]cn1)NC(=O)[C@@H](NC(=O)[C@@H](N)CC(=O)O)[C@@H](C)O)[C@@H](C)CC)C(=O)N[C@@H](Cc1cccc2ccccc12)C(N)=O` [F91Nal] (H-DTHFPICI[1Nal]-NH2; N-terminus assumed), for which the DC50 under setting [1] turned out to be 0.2 µM.

Turning to `CC[C@H](C)[C@H](NC(=O)[C@@H]1CCCN1C(=O)[C@@H](N)Cc1ccccc1)C(=O)N[C@@H](CS)C(N)=O` [Hep4] (H-FPIC-NH2), the DC50 under setting [1] was greater than 10 µM.

As to `CC[C@H](C)[C@H](NC(=O)[C@H](CSSC(C)(C)C)NC(=O)[C@@H](NC(=O)[C@@H]1CCCN1C(=O)[C@H](C)NC(=O)[C@H](Cc1c[nH]cn1)NC(=O)[C@@H](NC(=O)[C@@H](N)CC(=O)O)[C@@H](C)O)[C@@H](C)CC)C(=O)N[C@@H](Cc1ccccc1)C(N)=O` [Hep9C7-SStBut] (H-DTHAPIC(StBu)IF-NH2), the DC50 under setting [1] came to 0.7 µM.

`CC[C@H](C)[C@H](NC(=O)[C@H](CSC(C)(C)C)NC(=O)[C@@H](NC(=O)[C@@H]1CCCN1C(=O)[C@H](C)NC(=O)[C@H](Cc1c[nH]cn1)NC(=O)[C@@H](NC(=O)[C@@H](N)CC(=O)O)[C@@H](C)O)[C@@H](C)CC)C(=O)N[C@@H](Cc1ccccc1)C(N)=O` [Hep9C7-tBut] (H-DTHAPIC(tBu)IF-NH2): the DC50 under setting [1] was greater than 10 µM.

Regarding `CC[C@H](C)[C@@H]1NC(=O)[C@@H](NC(=O)[C@@H](NC(=O)[C@@H]2CCCN2C(=O)[C@H](Cc2ccccc2)NC(=O)[C@H](Cc2c[nH]cn2)NC(=O)[C@@H](NC(=O)[C@@H](N)CC(=O)O)[C@@H](C)O)[C@@H](C)CC)CSSC[C@@H](C(=O)N[C@@H](CCCCN)C(=O)N[C@H](C(=O)O)[C@@H](C)O)NC(=O)[C@@H]2CSSC[C@@H]3NC(=O)[C@@H]4CSSC[C@H](NC(=O)[C@H](Cc5ccccc5)NC1=O)C(=O)N[C@@H](CSSC[C@H](NC(=O)[C@H](CCCCN)NC(=O)[C@H](CO)NC(=O)[C@H](CCCNC(=N)N)NC(=O)[C@H](Cc1c[nH]cn1)NC3=O)C(=O)NCC(=O)N[C@@H](CCSC)C(=O)N2)C(=O)NCC(=O)N4` [Hep25, reference compound], under setting [1], the DC50 is 0.01 µM.

`CC[C@H](C)[C@H](NC(=O)[C@@H](NC(=O)[C@@H](NC(=O)[C@@H]1CCCN1C(=O)[C@H](Cc1ccccc1)NC(=O)[C@H](Cc1c[nH]cn1)NC(=O)[C@@H](NC(=O)[C@@H](N)CC(=O)O)[C@@H](C)O)[C@@H](C)CC)C(C)(C)S)C(=O)N[C@@H](Cc1ccccc1)C(N)=O` [Pen]: the DC50 under setting [1] worked out at 0.7 µM.

In the case of `CC[C@H](C)[C@H](NC(=O)[C@H](CS)NC(=O)[C@@H](NC(=O)[C@@H]1CCCN1C(=O)[C@H](Cc1ccccc1)NC(=O)[C@H](Cc1c[nH]cn1)NC(=O)[C@@H](NC(=O)[C@@H](N)CC(=O)O)[C@@H](C)O)[C@@H](C)CC)C(=O)N[C@@H](Cc1ccccc1)C(=O)N1CCC[C@@H]1C(=O)N1CCC[C@H]1C(=O)N[C@@H](CCCCN)C(N)=O` [Pr13], the DC50 under setting [1] was 0.1 µM.

Take `CC[C@H](C)[C@H](NC(=O)[C@H](CS)NC(=O)[C@@H](NC(=O)[C@@H]1CCCN1C(=O)[C@H](Cc1ccccc1)NC(=O)[C@H](Cc1c[nH]cn1)NC(=O)[C@@H](NC(=O)[C@@H](N)CC(=O)O)[C@@H](C)O)[C@@H](C)CC)C(=O)N[C@@H](Cc1ccccc1)C(=O)N1CCC[C@@H]1C(=O)N1CCC[C@H]1C(=O)N[C@@H](CCCNC(=N)N)C(N)=O` [Pr14]: the DC50 under setting [1] is 0.09 µM.

In the case of `CC[C@H](C)[C@H](NC(=O)[C@H](CS)NC(=O)[C@@H](NC(=O)[C@@H]1CCCN1C(=O)[C@H](Cc1ccccc1)NC(=O)[C@H](Cc1c[nH]cn1)NC(=O)[C@@H](NC(=O)[C@@H](N)CC(=O)O)[C@@H](C)O)[C@@H](C)CC)C(=O)N[C@@H](Cc1ccccc1)C(=O)N1CCC[C@H]1CC(=O)N1CCC[C@H]1C(=O)N[C@@H](CCCCN)C(N)=O` [Pr15], the pEC50 is 6.82.

The compound `CC[C@H](C)[C@H](NC(=O)[C@H](CS)NC(=O)[C@@H](NC(=O)[C@@H]1CCCN1C(=O)[C@H](Cc1ccccc1)NC(=O)[C@H](Cc1c[nH]cn1)NC(=O)[C@@H](NC(=O)[C@@H](N)CC(=O)O)[C@@H](C)O)[C@@H](C)CC)C(=O)N[C@@H](Cc1ccccc1)C(=O)N1CCC[C@H]1CC(=O)N1CCC[C@H]1C(=O)N[C@@H](CCCNC(=N)N)C(N)=O` [Pr16] showed a pEC50 of 7.30.
